Molecular target: TRPV1 (Homo sapiens, UniProt Q8NER1)
Assay: Fluo-4 calcium imaging in HEK293 cells stably expressing human TRPV1; no effect in control T-REx HEK293 cells; blocked by AMG9810
Type: cell-based

Chain of TRPV1 (Q8NER1 whole entry): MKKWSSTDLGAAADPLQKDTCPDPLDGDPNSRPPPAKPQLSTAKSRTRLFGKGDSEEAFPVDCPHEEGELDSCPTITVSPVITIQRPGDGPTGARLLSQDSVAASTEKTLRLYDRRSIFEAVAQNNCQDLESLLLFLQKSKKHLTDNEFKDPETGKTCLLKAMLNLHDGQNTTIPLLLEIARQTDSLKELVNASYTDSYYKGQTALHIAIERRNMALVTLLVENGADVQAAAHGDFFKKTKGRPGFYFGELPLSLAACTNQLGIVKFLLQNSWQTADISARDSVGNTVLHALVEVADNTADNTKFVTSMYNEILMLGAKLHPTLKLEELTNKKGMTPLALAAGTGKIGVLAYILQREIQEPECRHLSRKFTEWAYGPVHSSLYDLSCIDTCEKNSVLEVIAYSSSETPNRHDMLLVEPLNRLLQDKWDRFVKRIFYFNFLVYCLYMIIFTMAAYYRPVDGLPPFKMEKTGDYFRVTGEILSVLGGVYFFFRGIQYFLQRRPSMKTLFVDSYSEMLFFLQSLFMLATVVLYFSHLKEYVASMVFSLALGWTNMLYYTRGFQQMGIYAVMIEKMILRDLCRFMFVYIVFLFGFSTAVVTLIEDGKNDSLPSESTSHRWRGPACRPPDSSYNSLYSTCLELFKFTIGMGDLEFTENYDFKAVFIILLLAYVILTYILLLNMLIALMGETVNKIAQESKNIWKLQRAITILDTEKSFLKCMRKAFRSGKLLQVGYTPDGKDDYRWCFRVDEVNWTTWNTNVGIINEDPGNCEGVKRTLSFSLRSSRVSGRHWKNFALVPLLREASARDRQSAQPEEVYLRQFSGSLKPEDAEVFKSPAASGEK

SMILES: O=C(/C=C/C=C/c1ccc2c(c1)OCO2)N1CCCCC1 [Piperine]
- EC50: 1.08 µM
